Data: publication PMC3403540, “Active Hydrophilic Components of the Medicinal Herb Salvia miltiorrhiza (Danshen) Potently Inhibit Organic Anion Transporters 1 (Slc22a6) and 3 (Slc22a8)” (Evidence-based Complementary and Alternative Medicine : eCAM, 2012)

Molecular target: T1, mOat1 (Mus musculus, UniProt Q8VC69)
T1 construct: expressed in transfected cells; host or cells: CHO (Chinese hamster ovary), stably transfected (CHO-mOat1)
T1 sequence (Q8VC69 1-545): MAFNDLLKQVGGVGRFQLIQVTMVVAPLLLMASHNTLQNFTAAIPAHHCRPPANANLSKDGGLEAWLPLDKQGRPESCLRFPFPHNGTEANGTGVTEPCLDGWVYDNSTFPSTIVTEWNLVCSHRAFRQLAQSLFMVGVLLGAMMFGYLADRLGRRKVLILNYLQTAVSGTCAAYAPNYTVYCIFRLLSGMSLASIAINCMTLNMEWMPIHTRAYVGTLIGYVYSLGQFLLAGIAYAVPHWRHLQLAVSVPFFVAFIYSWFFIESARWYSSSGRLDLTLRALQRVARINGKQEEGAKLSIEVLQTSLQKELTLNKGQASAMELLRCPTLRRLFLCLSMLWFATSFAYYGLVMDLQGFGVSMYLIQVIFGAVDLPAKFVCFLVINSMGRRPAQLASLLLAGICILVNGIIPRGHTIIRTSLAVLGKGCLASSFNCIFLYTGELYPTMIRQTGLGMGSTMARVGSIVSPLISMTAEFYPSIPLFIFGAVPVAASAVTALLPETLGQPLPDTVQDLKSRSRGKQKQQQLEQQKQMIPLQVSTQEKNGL
Test: Inhibition of mOat1-mediated [3H]PAH uptake in CHO-mOat1 cells (cell accumulation assay)
Assay type: cell-based, murine
Conditions: for inhibition at 1000 µM: 1 mM (1000 μM) inhibitor, 10 min, CHO-mOat1 cells, read-out: inhibition of mOat1-mediated PAH uptake; for inhibition at 1000 µM / Ki: 5 μM [3H]PAH; for Estimated α value from mixed inhibition model analysis, mOat1: 5 μM PAH for 2 min, mean, α > 1 indicates competitive inhibition; for Ki: 2 min, CHO-mOat1, mean ± S.E.M. (n = 3), from IC50 via Cheng-Prusoff, read-out: Estimated K i for mOat1-mediated transport; for mode of inhibition of mOat1-mediated transport: mixed inhibition model, PAH substrate; for K i ratio (mOat1/mOat3): ratio of Ki on mOat1 to Ki on mOat3
Protocol: Derivation of the stably transfected Chinese hamster ovary (CHO) cell lines expressing mOat1 (CHO-mOat1), mOat3 (CHO-mOat3), and the empty vector (FRT) transfected control cell line (CHO-FRT) was described previously.
Cell transport assay procedures were adapted from those previously published. In brief, 2 × 10^5 cells/well were seeded in 24-well tissue culture plates and grown in the absence of antibiotics for 48 hr. On the day of the experiment, cells were equilibrated with transport buffer for 10 min (500 μL of Hanks' balanced salt solution containing 10 mM HEPES, pH 7.4). […] After incubation, cells were immediately rinsed three times with ice-cold transport buffer, lysed, and analyzed via liquid scintillation counting. Uptake values were normalized to corresponding total protein content in cell lysates as determined by the Bradford method. Substrate accumulation is reported as picomoles of substrate per milligram protein. […] Kinetic calculations were performed using GraphPad Prism Software version 5.0 (GraphPad Software Inc., San Diego, CA, USA). Michaelis constant (K m) values were calculated by nonlinear regression using the Michaelis-Menten model. […] In this study, three curves were constructed (no inhibitor, plus two selected inhibitor concentrations) with uptake of substrate plotted as a function of its concentration for each condition. […] The parameter, α, can then be used to determine the mode of inhibition. When α is very large (α > 1), it indicates competitive inhibition. […] Results were confirmed by repeating all experiments at least three times with triplicate wells for each data point in every experiment.
Figure 3 Michaelis-Menten kinetics of PAH transport in CHO-mOat1 cells. In order to calculate K i values for mOat1, the K m value for PAH needed to be determined in the CHO-mOat1 cell system. […] The corrected curve (closed circles) was obtained by subtracting the nonspecific background uptake as measured in the CHO-FRT cells from CHO-mOat1 accumulation to allow analysis of mOat1-mediated activity. Experiments were repeated three times in triplicate, and Michaelis constant (K m) values were calculated by nonlinear regression using the Michaelis-Menten model. […] Graph shown is from a representative experiment with values plotted as mean ± S.D. (n = 3).
Figure 2 Inhibition profile of mOat1 and mOat3. […] (b) Inhibition of mOat3-mediated uptake of [^3H]ES (1 μM) by LSA, PCA, RMA, SAA, SAB, TSL, and probenecid (1000 μM) was measured in the CHO-mOat3 cells (10 min). […] Values are mean ± S.D. of triplicate values. ***denotes P < 0.001 as determined by one-way ANOVA followed by Dunnett's t-test.
Figure 4 K i determination for LSA, RMA, and SAA in the CHO-mOat1 cell line. […] (5 μM) in CHO-mOat1 cells was measured in the presence of increasing concentrations (10^−7 to 5 × 10^−4 M) of LSA, RMA, and SAA. Data were corrected for nonspecific background measured in the CHO-FRT cells prior to kinetic analysis. K i values were determined with non-linear regression and the “one-site competition” model using GraphPad Prism software. Graphs shown are from representative experiments with values plotted as mean ± S.D. (n = 3).

Structure (SMILES)	inhibition at 1000 µM	Estimated α value from mixed inhibition model analysis, mOat1	Ki	mode of inhibition of mOat1-mediated transport	K i ratio (mOat1/mOat3)
O=C(O)C(O)Cc1ccc(O)c(O)c1 (stereo not shown) [TSL, tanshinol]	70 to 85%	–	–	–	–
O=C(/C=C/c1ccc(O)c(O)c1)O[C@H](Cc1ccc(O)c(O)c1)C(=O)O [RMA, rosmarinic acid]	> 95%	1.3 × 10^12	5.5 ± 2.2 µM	competitive	1.29
O=C(/C=C/c1ccc(O)c(O)c1/C=C/c1ccc(O)c(O)c1)O[C@H](Cc1ccc(O)c(O)c1)C(=O)O [SAA, salvianolic acid A]	> 95%	2.6 × 10^14	4.9 ± 2.2 µM	competitive	0.23
O=C(/C=C/c1ccc(O)c2c1[C@H](C(=O)O)[C@@H](c1ccc(O)c(O)c1)O2)O[C@H](Cc1ccc(O)c(O)c1)C(=O)O [LSA, lithospermic acid]	70 to 85%	6.7 × 10^11	14.9 ± 4.9 µM	competitive	0.48
